In brackets after ≈: the same amount, converted by molar mass. Activity calls are given as the source filed them. The calls are words filed in the database; no cut-off is given here.

These results are taken from ChEMBL document CHEMBL3779874, “Pyridones as Highly Selective, Noncovalent Inhibitors of T790M Double Mutants of EGFR” (ACS Med Chem Lett, 2016).

In series [1] the target is Epidermal growth factor receptor (Homo sapiens, UniProt P00533). The series can be described thus: Inhibition of human N-terminal GST-tagged EGFR catalytic domain (669 to 1210 residues) expressed in baculovirus expression system using Fl-EEPLYWSFPAKKK-CONH2 peptide substrate preincubated for 30 mins followed by substrate addition measured after 30 mins by Caliper Mobility Shift Assay. Conditions: read-out: Ki(app).
Epidermal growth factor receptor (Homo sapiens, UniProt P00533), sequence (P00533 whole entry, the tested form may be a part): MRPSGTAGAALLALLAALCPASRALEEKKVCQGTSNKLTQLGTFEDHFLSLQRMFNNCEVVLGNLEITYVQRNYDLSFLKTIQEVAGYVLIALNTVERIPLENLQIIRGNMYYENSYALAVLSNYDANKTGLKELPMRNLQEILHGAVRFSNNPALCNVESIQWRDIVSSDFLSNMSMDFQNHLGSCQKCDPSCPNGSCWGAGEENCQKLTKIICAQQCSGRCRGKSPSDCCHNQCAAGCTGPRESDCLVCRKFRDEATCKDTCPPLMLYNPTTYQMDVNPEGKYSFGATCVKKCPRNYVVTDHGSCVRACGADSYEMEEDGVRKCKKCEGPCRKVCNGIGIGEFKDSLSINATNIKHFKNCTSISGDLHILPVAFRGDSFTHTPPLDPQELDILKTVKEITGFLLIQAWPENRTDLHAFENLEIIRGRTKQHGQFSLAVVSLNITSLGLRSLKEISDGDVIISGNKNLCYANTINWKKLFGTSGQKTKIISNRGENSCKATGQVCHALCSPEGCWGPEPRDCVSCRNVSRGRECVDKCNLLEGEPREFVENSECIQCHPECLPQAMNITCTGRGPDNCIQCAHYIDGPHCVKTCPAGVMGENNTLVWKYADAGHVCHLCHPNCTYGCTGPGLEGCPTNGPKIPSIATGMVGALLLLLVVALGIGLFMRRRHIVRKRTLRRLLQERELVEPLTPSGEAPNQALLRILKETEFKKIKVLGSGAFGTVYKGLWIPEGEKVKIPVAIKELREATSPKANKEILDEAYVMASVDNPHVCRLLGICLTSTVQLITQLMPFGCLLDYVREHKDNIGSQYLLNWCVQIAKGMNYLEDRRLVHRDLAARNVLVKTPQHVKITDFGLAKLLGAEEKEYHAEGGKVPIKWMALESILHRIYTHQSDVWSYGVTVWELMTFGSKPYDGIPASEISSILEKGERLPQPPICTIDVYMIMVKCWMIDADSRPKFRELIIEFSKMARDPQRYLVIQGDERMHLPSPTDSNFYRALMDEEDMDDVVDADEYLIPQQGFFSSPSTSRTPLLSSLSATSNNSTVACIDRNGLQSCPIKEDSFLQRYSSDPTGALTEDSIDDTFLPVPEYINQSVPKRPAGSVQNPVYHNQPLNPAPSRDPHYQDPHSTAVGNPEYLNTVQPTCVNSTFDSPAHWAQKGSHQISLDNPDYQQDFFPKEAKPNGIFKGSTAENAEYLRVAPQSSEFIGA

For series [2], the target named is T1, Epidermal growth factor receptor (Homo sapiens, UniProt P00533, L858R/T790M). The series can be described thus: Inhibition of human EGFR catalytic domain (668 to 1210 residues) T790M/L858R double mutant using Fl-EEPLYWSFPAKKK-CONH2 peptide substrate preincubated for 30 mins followed by substrate addition measured after 30 mins by Caliper Mobility Shift Assay. The format is protein assay. The settings on record: read-out: Ki(app).

Series [3] is filed under the species Homo sapiens. The series is described as follows: Selectivity ratio of Ki(app) for human N-terminal GST-tagged EGFR catalytic domain (669 to 1210 residues) expressed in baculovirus expression system to Ki(app) for human EGFR catalytic domain (668 to 1210 residues) T790M/L858R double mutant.
For series [4], the species on record is Homo sapiens. The series can be described thus: Selectivity ratio of Ki(app) for JAK2 (unknown origin) to Ki(app) for human EGFR catalytic domain (668 to 1210 residues) T790M/L858R double mutant.
The species entered for series [5] is Homo sapiens. The series can be described thus: Selectivity ratio of Ki(app) for JAK1 (unknown origin) to Ki(app) for human EGFR catalytic domain (668 to 1210 residues) T790M/L858R double mutant.
The nature of series [6]: Lipophilicity, log D of compound at pH 7.4. The format is physicochemical. The settings on record: buffer.
Series [7] in a line: Kinetic solubility of compound in pH7.4 DMSO/phosphate buffered saline after 24 hrs by chemiluminescent nitrogen detection method. The series is classed as physicochemical. The settings on record: pH 7.4, read-out: Kinetic_solubility.
The target in series [8] is T1, Epidermal growth factor receptor. The series is described as follows: Inhibition of EGFR T790M/L858R double mutant phosphorylation in human H1975 cells preincubated for 1 hr followed by EGF stimulation for 8 mins by electrochemiluminescent immunoassay. The series is classed as cell-based.
The target of series [9] is T2, Tyrosine-protein kinase JAK2 (Homo sapiens, UniProt O60674). The series is described as follows: Inhibition of JAK2 (unknown origin). Conditions: read-out: Ki(app).
T2 sequence (O60674 whole entry): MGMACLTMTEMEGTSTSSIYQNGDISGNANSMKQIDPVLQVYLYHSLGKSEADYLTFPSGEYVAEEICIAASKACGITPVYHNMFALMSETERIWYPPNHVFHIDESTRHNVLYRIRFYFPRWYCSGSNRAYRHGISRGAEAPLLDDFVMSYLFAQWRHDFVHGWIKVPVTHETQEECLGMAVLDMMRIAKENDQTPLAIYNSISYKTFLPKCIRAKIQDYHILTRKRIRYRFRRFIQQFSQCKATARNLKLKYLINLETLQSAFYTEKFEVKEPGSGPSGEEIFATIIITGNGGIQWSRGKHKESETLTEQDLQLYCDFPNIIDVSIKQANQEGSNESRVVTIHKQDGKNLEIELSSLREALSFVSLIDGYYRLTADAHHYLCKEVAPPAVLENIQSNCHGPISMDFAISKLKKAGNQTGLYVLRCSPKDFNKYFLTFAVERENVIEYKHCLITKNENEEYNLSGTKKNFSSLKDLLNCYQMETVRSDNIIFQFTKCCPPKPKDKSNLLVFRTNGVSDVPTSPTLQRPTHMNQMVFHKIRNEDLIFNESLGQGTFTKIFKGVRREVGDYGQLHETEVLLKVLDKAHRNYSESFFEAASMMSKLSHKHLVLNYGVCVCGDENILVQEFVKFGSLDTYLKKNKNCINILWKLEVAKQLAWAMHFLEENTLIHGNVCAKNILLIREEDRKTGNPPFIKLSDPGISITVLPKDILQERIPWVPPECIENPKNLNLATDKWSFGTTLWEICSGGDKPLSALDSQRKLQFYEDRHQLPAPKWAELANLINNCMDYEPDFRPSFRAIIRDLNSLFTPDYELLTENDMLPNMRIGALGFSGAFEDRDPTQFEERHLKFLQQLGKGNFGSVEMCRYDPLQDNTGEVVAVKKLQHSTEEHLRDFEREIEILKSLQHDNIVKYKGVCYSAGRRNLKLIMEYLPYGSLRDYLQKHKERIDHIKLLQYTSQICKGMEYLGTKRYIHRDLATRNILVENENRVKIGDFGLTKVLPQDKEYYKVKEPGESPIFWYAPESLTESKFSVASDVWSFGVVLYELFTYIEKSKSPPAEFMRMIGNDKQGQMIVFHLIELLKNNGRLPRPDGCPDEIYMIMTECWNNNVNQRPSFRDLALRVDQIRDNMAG
Series [10] concerns the target T2, Tyrosine-protein kinase JAK2. The series can be described thus: Inhibition of JAK2 (unknown origin) at 1 uM.
The species named for series [11] is Homo sapiens. The series is described as follows: Selectivity ratio of Ki(app) for JAK1 (unknown origin) to Ki(app) for JAK2 (unknown origin).
The target in series [12] is Tyrosine-protein kinase JAK1 (Homo sapiens, UniProt P23458). The series can be described thus: Inhibition of JAK1 (unknown origin). The settings on record: read-out: Ki(app).
Tyrosine-protein kinase JAK1, sequence (P23458 whole entry): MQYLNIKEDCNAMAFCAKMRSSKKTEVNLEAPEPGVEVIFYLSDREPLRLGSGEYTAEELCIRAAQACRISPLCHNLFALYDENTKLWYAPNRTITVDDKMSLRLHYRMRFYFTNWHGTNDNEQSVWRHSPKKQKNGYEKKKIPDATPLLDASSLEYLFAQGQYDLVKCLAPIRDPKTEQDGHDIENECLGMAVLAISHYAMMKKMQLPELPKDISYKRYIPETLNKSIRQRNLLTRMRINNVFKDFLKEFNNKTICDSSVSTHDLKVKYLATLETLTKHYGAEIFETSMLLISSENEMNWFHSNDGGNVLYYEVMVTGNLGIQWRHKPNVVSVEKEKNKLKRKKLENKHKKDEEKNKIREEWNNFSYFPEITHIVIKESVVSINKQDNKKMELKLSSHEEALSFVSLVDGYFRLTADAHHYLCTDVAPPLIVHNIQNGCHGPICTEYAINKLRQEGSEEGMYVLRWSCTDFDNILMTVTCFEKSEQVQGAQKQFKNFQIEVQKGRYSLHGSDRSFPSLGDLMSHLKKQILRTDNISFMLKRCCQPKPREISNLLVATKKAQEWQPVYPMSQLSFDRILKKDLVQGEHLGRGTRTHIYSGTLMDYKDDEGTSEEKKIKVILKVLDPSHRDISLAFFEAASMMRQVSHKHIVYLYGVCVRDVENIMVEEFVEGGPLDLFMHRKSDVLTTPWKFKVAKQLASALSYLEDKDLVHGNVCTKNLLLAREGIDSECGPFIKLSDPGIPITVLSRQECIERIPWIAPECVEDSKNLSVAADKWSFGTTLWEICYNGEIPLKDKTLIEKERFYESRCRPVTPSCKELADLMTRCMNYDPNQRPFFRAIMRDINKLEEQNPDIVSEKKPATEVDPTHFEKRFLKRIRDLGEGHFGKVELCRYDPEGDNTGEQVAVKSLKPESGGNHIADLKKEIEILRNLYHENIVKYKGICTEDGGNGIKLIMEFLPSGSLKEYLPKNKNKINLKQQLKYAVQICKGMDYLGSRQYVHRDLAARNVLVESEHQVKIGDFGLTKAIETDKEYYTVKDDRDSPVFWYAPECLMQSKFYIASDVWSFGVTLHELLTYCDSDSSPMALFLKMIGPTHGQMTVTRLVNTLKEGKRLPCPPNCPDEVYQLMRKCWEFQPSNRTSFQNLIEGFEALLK
Series [13] concerns H1975. The series is described as follows: Ratio of EC50 for wild type EGFR phosphorylation in human H292 cells to EC50 for EGFR T790M/L858R double mutant phosphorylation in human H1975 cells. The format is cell-based.

Turning to `COc1ccccc1Nc1cc[nH]c(=O)c1C(=O)Nc1ccc(N2CCC(C)CC2)cc1`, the Ki in series [1] is more than 2500 nM; in series [2] it was 625 nM. Besides, in series [3], the Ratio Ki(app) is more than 4.1.

Consider `COc1ccccc1Nc1cc[nH]c(=O)c1-c1nc2c(C(C)C)ccc(C)c2[nH]1`, for which the results for the Ratio Ki(app) in series [4], in series [5] and in [3] were 0.3, 6 and 27, respectively. Further, the Ki in series [2] stood at 88 nM.

Take `COc1ccccc1Nc1cc[nH]c(=O)c1-c1nc2c(C(C)C)cccc2[nH]1`: the values for the Ratio Ki(app) in [4], in series [5] and in series [3] were 0.2, 2 and 42, respectively. The Ki in series [1] amounted to 2400 nM; in series [2], 58 nM.

`COc1ccccc1Nc1cc[nH]c(=O)c1C(=O)Nc1ccc(N2CCN(C)CC2)nc1`: in [6], the logD (commonly lipophilicity at a set pH, counting ionised and neutral species) was 2.6. The solubility kinetic at 24 h in series [7] was 65 µM (≈ 28.2 µg/mL). Further, the values for the Ki in series [1] and in series [2] were more than 2500 nM and 78 nM, respectively. Also, in series [3], the Ratio Ki(app) was more than 33.

For `CN1CCN(c2ccc(NC(=O)c3c(Nc4ccncc4N)cc[nH]c3=O)cc2)CC1`, the Ki was more than 1230 nM in series [1] and 145 nM in series [2]. In series [3], the Ratio Ki(app) was more than 8.

Turning to `COc1ccccc1Nc1cc[nH]c(=O)c1C(=O)Nc1ccc(N2CCS(=O)(=O)CC2)cc1`, the Ki is more than 1300 nM in series [1] and 37 nM in series [2]. Besides, the Ratio Ki(app) in series [3] was more than 34.

With `CCc1cc(NC(=O)c2c(Nc3ccccc3OC)cc[nH]c2=O)ccc1N1CCN(C)CC1`, the Ratio Ki(app) is 4 in series [4], 104 in series [5] and more than 80 in series [3]. The Ki in series [2] came out at 31 nM.

Regarding `COc1ccccc1Nc1cc[nH]c(=O)c1C(=O)Nc1ccc(N2CCCN(C)CC2)cc1`, the Ki in [1] amounted to 705 nM; in series [2], 12 nM. Also, the Ratio Ki(app) in series [3] is 57.

For `CN1CCN(c2ccc(NC(=O)c3c(NC[C@@H](O)c4cccc(Cl)c4)cc[nH]c3=O)cc2)CC1`, the solubility kinetic at 24 h in series [7] amounted to 11 µM (≈ 5.3 µg/mL). Moreover, the Ki was determined as 18 nM in [1] and 65 nM in series [2]. Moreover, the Ratio Ki(app) in series [3] is less than 1. In series [8], a half-maximal response (EC50) required 412 nM.

On to `CN1CCN(c2ccc(NC(=O)c3c(Nc4ccccn4)cc[nH]c3=O)cc2)CC1`, for which the Ki in series [1] was more than 2540 nM; in series [2], 108 nM. Moreover, the Ratio Ki(app) in series [3] is more than 24.

As for `CN1CCN(c2ccc(NC(=O)c3c(Nc4ccccc4)cc[nH]c3=O)cc2)CC1`, the Ki in series [1] is more than 2540 nM; in [2], 144 nM. Also, in series [3], the Ratio Ki(app) was more than 18.

Consider `COc1ccccc1Nc1cc[nH]c(=O)c1C(N)=O`, for which the Ki in series [1] is more than 2500 nM; in series [2], more than 688 nM. In addition, the Ratio Ki(app) in series [3] is more than 3.6.

With `COc1ccccc1Nc1cc[nH]c(=O)c1C(=O)Nc1ccc(N2CCN(C)CC2)cc1`, the Ki amounted to 9 nM in series [9], 172 nM in series [12], 1090 nM in series [1] and 19 nM in series [2]. For the same molecule, the inhibition entry in [10] is “Active”. This molecule returned a logD in series [6] of 3.5. Besides, in series [7], the solubility kinetic at 24 h was determined as 4 µM (≈ 1.73 µg/mL). The Ratio Ki(app) is 0.5 in series [4], 9 in [5], 10 in series [11] and 58 in series [3]. A half-maximal response in series [8] (EC50) required 1090 nM. Besides, the Ratio EC50 in series [13] is 5.

On to `O=C(Nc1ccccc1)c1c(NCCc2cccc(Cl)c2)cc[nH]c1=O`, for which the Ki in series [1] worked out at 1210 nM; in series [2], 330 nM. The Ratio Ki(app) in series [3] amounted to 2.

For `CN1CCN(c2ccc(NC(=O)c3c(NCCc4cccc(Cl)c4)cc[nH]c3=O)cc2)CC1`, the Ki amounted to 43 nM in series [1] and 66 nM in series [2]. Moreover, the Ratio Ki(app) in series [3] worked out at 1.

For `Cc1ccccc1Nc1cc[nH]c(=O)c1C(=O)Nc1ccc(N2CCN(C)CC2)cc1`, the Ki in series [1] turned out to be 2340 nM; in [2] it was 61 nM. In addition, the Ratio Ki(app) in series [3] turned out to be 38.

`CN1CCN(c2ccc(NC(=O)c3c(Nc4ccc(Cl)cc4)cc[nH]c3=O)cc2)CC1`: the Ki is more than 2540 nM in [1] and 629 nM in series [2]. Further, the Ratio Ki(app) in [3] was more than 4.

As to `CN1CCN(c2ccc(NC(=O)c3c(Nc4cccc(Cl)c4)cc[nH]c3=O)cc2)CC1`, the Ki in series [1] was 2520 nM; in series [2] it was 155 nM. Besides, the Ratio Ki(app) in series [3] was 16.

Take `CN1CCN(c2ccc(NC(=O)c3c(N)cc[nH]c3=O)cc2)CC1`: the Ki in series [1] is more than 2540 nM; in [2] it was 346 nM. The Ratio Ki(app) in [3] was more than 7.

Take `COc1ccccc1Nc1cc[nH]c(=O)c1C(=O)Nc1ccc(N2CCN(C)CC2)cn1`: the Ki in [1] was more than 2500 nM; in series [2], more than 2060 nM. In addition, the Ratio Ki(app) in [3] was 1.

As to `CN1CCN(c2ccc(NC(=O)c3c(NCCc4ccc(Cl)cc4)cc[nH]c3=O)cc2)CC1`, the Ki in series [1] came to 37 nM; in series [2] it was 262 nM. Also, the Ratio Ki(app) in series [3] was less than 1.

Take `CN1CCN(c2ccc(NC(=O)c3c(NCCc4ccccc4)cc[nH]c3=O)cc2)CC1`: the values for the Ki in [1] and in series [2] were 49 nM and 117 nM, respectively. The Ratio Ki(app) in [3] was less than 1.

Take `CN1CCN(c2ccc(NC(=O)c3c(NCc4ccccc4)cc[nH]c3=O)cc2)CC1`: the results for the Ki in series [1] and in [2] were 349 nM and 350 nM, respectively. The Ratio Ki(app) in series [3] came to 1.

With `CN1CCN(c2ccc(NC(=O)c3c(Nc4ccccc4Cl)cc[nH]c3=O)cc2)CC1`, the Ki in series [1] turned out to be 1480 nM; in series [2], 82 nM. The Ratio Ki(app) in series [3] came out at 18.

With `CN(C)c1ccc(NC(=O)c2c(NCCc3cccc(Cl)c3)cc[nH]c2=O)cc1`, the values for the Ki in series [1] and in series [2] were 757 nM and 290 nM, respectively. Also, the Ratio Ki(app) in series [3] worked out at 1.

Turning to `COc1ccccc1Nc1cc[nH]c(=O)c1C(=O)Nc1ccc(N2CCN(C)CC2)c(C)c1`, the figures for the Ratio Ki(app) in series [4], in series [5] and in series [3] were 0.9, 42 and 16, respectively. The Ki in series [2] came to 26 nM.

Take `CN1CCN(c2ccc(NC(=O)c3c(Nc4ccncn4)cc[nH]c3=O)cc2)CC1`: the Ki is more than 2540 nM in series [1] and 95 nM in series [2]. Besides, the Ratio Ki(app) in series [3] was more than 27.

`CN1CCN(c2ccc(NC(=O)c3c(Nc4ccnc(N)n4)cc[nH]c3=O)cc2)CC1`: the inhibition entry in [10] was “Active”. Moreover, the Ratio Ki(app) turned out to be 2 in series [4], 3 in series [5] and 213 in series [3]. Besides, the Ki in [1] came to 850 nM; in series [2] it was 4 nM.

On to `COc1ccccc1N(C)c1cc[nH]c(=O)c1C(=O)Nc1ccc(N2CCN(C)CC2)cc1`, for which the Ki was more than 2540 nM in [1] and more than 2060 nM in series [2]. In addition, in [3], the Ratio Ki(app) stood at 1.

With `COc1ccccc1Nc1cc[nH]c(=O)c1C(=O)Nc1ccc(C2CCN(C)CC2)cc1`, in series [6], the logD was found to be 2.7. Besides, the solubility kinetic at 24 h in series [7] amounted to 61 µM (≈ 26.4 µg/mL). Moreover, the values for the Ki in [1] and in [2] were 634 nM and 15 nM, respectively. In [3], the Ratio Ki(app) worked out at 29. For the same molecule, the EC50 (as a rule, the concentration that produces a half-maximal response) in series [8] was determined as 433 nM. Also, the Ratio EC50 in [13] was more than 23.

On to `COc1ccccc1Nc1cc[nH]c(=O)c1C(=O)Nc1ccc(CN2CCN(C)CC2)cc1`, for which the results for the Ki in series [1] and in [2] were 1200 nM and 51 nM, respectively. Moreover, in series [3], the Ratio Ki(app) came to 22.
